According to patent US11903907B2, “Soluble honokiol derivatives” (TAIPEI MEDICAL UNIVERSITY, priority 2017, dated 2024):

Tests used:
[1] = test system: middle cerebral artery occlusion (MCAO) embolic stroke; assay: MCAO embolic stroke in mice: infarct volume and brain edema from TTC-stained brain sections; assay type: in vivo
Experimental: (§1) Coronal sections of 2,3,5-triphenyltetrazolium chloride (TTC)-stained brains were taken after middle cerebral artery occlusion (MCAO) in the vehicle group treated with an isovolumetric solvent (normal saline, intravenous [i.v.]), and groups treated with HP-TMU (0.25, 0.5 and 1 mg/kg, i.v.) or honokiol (0.129, 0.258 and 0.516 mg/kg, i.v.; the doses of honokiol were adjusted by the ratio of the molecular weight of honokiol to HP-TMU (266.33/514.22)) after 30 min-embolic occlusion. The densitometric analyses for the measurement of infarct volume and brain edema were performed after treatment with HP-TMU or honokiol against embolic stroke in mice. Bleeding time was measured 10 min after the i.v. administration of normal saline (isovolumetric control) or HP-TMU (0.5 and 1 mg/kg, i.v.) for 30 min.
(§2) In addition, MCAO-induced cerebral edema in the ischemic hemisphere was reduced by the treatment of 1 mg/kg HP-TMU (FIG. 1C). […] On the other hand, increased risk of hemorrhage is a major side effect of anti-stroke treatments. To evaluate HP-TMU in this aspect, we used the mouse tail transection model as an index of hemostasis.

[2] = test system: mouse tail transection model (hemostasis); assay: Bleeding time, mouse tail transection model; assay type: in vivo, mice; conditions: 0.5 and 1 mg/kg i.v.; measured 10 min after administration
Experimental: as §1, §2

[3] = test system: middle cerebral artery occlusion (MCAO); assay: Neurobehavioral functions after MCAO: neurological severity scoring and rotarod test; assay type: in vivo, mice; conditions: 0.5 and 1 mg/kg i.v., 24 and 48 h after MCAO, P<0.05
Experimental: Mice were subjected to middle cerebral artery occlusion (MCAO) surgery for 30 min, and then treated with the isovolumetric vehicle control (normal saline, intravenous [i.v.]) or HP-TMU (0.25, 0.5 and 1 mg/kg, i.v.) or honokiol (0.129, 0.258 and 0.516 mg/kg, i.v.). Assays of neurobehavioral functions include neurological severity scoring and the rotarod test. Evaluations were performed before and 24 and 48 h after surgery.

[4] = test system: middle cerebral artery occlusion (MCAO); assay: Long-term recovery after MCAO by neurological severity scoring, comparison with edaravone; assay type: in vivo, mice; conditions: 1 mg/kg i.v.; at 1, 2, and 7 days after surgery
Experimental: Mice were subjected to middle cerebral artery occlusion (MCAO) surgery for 30 min, and then treated with the isovolumetric vehicle control (normal saline, intravenous [i.v.]) or HP-TMU (1 mg/kg, i.v.) or edaravone (3 mg/kg, i.v.). The therapeutic effects of HP-TMU on long-term recovery were evaluated by neurological severity scoring before or 1, 2, 7, 14, and 28 days after surgery.

[5] = Plasma concentration of honokiol and pharmacokinetics after intravenous injection in rats; conditions: rat plasma, i.v.
Experimental: Mean plasma concentrations of honokiol vs. time profile in five rats were measured after intravenous injection of HP-TMU or honokiol.
The plasma concentrations of honokiol at different points are expressed as mean±SD, and the mean concentration-time curve is shown in FIG. 4A.

For `C=CCc1ccc(OP(=O)(O)O)c(-c2ccc(OP(=O)([O-])[O-])c(CC=C)c2)c1.[Na+].[Na+]` [HP-TMU, sodium 3′,5-diallyl-[1,1′-biphenyl]-2,4′-diyl bis(phosphate)], the “MCAO-induced cerebral edema in the ischemic hemisphere” value ([1]; 1 mg/kg i.v.) was “reduced”, the infarct volume ([1]; 0.5 and 1 mg/kg i.v. after 30 min-embolic occlusion, compared with solvent control group, P<0.05) was “significantly reduced the infarct volume” and the “neuroprotective effects compared with honokiol” value ([1]; HP-TMU 0.25, 0.5, 1 mg/kg i.v. vs honokiol 0.129, 0.258, 0.516 mg/kg i.v.) was “more potent neuroprotective effects than honokiol”. The bleeding time [2] was “did not alter the bleeding time substantially”, the “neurobehavioral (neurological) deficit scores, 18-point scale” value [3] was “significantly ameliorated these increased scores” and the “decrease of rotarod duration” value ([3]; vs vehicle control) was “significant reversed”. For the same molecule, the “long-term recovery of neurological deficit” value [4] was “significantly improved” and the “half-life compared to honokiol” value [5] was “prolonged half-life compared to honokiol”.
